Source: US20230277464A1, “TABLET DOSAGE FORMS FOR LIPID-BASED DRUG DELIVERY SYSTEMS” (ABITEC Corporation, priority 2022, published 2023)

Experiment: Visual dissolution of ibuprofen in SEDDS pre-concentrate
Format: physicochemical
Description: The medium chain fatty acid esters and oil were weighed into a 2000 mL glass beaker. Subsequently, a magnetic stirrer was added to the beaker. The medium chain fatty acid esters and oil were blended to uniformity for 5 minutes with the magnetic stirrer set at 5. […] […] The pre-concentrate was observed 24 hours later to ensure that the ibuprofen was still dissolved.

CC(C)Cc1ccc(C(C)C(=O)O)cc1 (centres unmarked) [Ibuprofen, ibuprofen]
Time ibuprofen remained dissolved in the pre-concentrate (room temperature): at least 24 hours
Ibuprofen dissolved in the pre-concentrate components (with heating): about 15.0%
